Assay results as given in patent publication US11439611B2, “Administration of serine protease inhibitors to the stomach” (LEADING BIOSCIENCES, INC., priority 2010, dated 2022).

How the values were obtained:
Format in all cases: in vivo
[1] = Rat model of severe ischemic intestine with enteral oxygen carrier; details: 30 min ischemia, 17 ml solution for a 230 g rat, saturated for 10 min in oxygen
Description: More specifically, the feasibility was illustrated in a model with 30 min ischemia with perfluorodecalin solution 17 ml for 230 g rat) previously saturated for 10 min in oxygen. Thus, it should be noted that gastric, duodenal, jejunal, and ileal irrigation (or otherwise exposure) may be used as a stand-alone or supplemental treatment in human and other mammals. Most typically, the volume of the oxygen carrier will be adjusted such as to allow intimate contact with the oxygen carrier throughout the stomach, duodenum, jejunum, and/or ileum.

digestive enzymes = test: Shock treatment in rats with an enteral protease inhibitor to block digestive enzymes
Description: With respect to suitable quantities of one or more protease inhibitors, the inventors observed in various animal models that shock treatment using protease inhibitors to block digestive enzymes requires for at least some protease inhibitors a minimum effective dosage that is substantially above the dosage contemplated in the '283 patent. For example, using tranexamic acid in rats, the minimum effective dose was 100 mg/kg (127 mM in the enteral solution with 17 ml to a 350 gm rat). Here, tranexamic acid was given to rats in 18 cc of fluid. The equivalent concentration in 2 liters (deemed suitable as human dose) is 3.2 grams. The maximum dose tested in rats was 1125 mg/kg, which is equivalent to 36 grams for a human dose in 2 liters of fluid to be administered into the lumen of the stomach or intestine.

[2] = Case study: human patient with Fournier's gangrene, septic shock and multiple organ failure, treated with gabexate mesilate
Description: For example, as reported in a case study from the Cheng-Hsin General Hospital (that was approved by Human Ethics Committee and written consent by the patient), a heart transplant patient was regularly followed-up in the clinic with cyclosporine, mycophenolate, and prednisolone therapy for four years. The cyclosporine level was kept around 150, […] without evidence of rejection or infection during this period of follow-up. […] The wound was self-managed by the patient and deteriorated after one week. They were hospitalized and immediately admitted to the intensive care unit. At presentation, blood pressure was 80/40 mmHg in spite of aggressive fluid management with 2 liters of crystalloid and colloid fluid over 5 hours and vasopressor therapy with dopamine […]. […] They were intubated and received broad-spectrum antibiotics, including teichomycin, meropenem, and caspofungin. […] The diagnosis was Fournier's gangrene complicated with septic shock and multiple organ failure. Due to persistent septic shock and worsening septic markers, the patient received in addition a diverting colectomy and intravenous total parental nutrition. Furthermore, the patient also received a second wide debridement. The wound culture was positive with multiple drug resistance Pseudomonas aeruginosa and Bacteroides thetaiotaomicron.
Intravenous gabexate mesilate was given for severe septic shock and elevated amylase and lipase values (as markers for presence of pancreatic enzymes) at a dose of 3000 mg/day. At the same time, the patient stopped all enteral feeding and total parental nutrition was given with positive fluid balance of more than 1 liter per day.
Treatment was then switched to enteral gabexate mesilate infusion by continuous feeding into the stomach via nasogastric tube at a dose of 3000 mg/day in 2000 ml of normal saline. […] On the third day, the dose of gabexate mesilate was reduced to 300 mg/day in a fluid volume of 2000 ml and kept at this level for 10 days before discharge of the patient from the intensive care unit. […] Three days after enteral gabexate mesilate treatment they were extubated. On day 13, the immunosuppressant medication was restored with reduced dosage compared to the time before hospitalization and they were discharged from the ward after one month of admission. Five months after discharge at the time of this report writing the patient was alive.

[3] = enteral via nasogastric tube, 3000 mg/day, within two days

Compound: FC1(F)C(F)(F)C(F)(F)C2(F)C(F)(F)C(F)(F)C(F)(F)C(F)(F)C2(F)C1(F)F (stereo not shown) [perfluorodecalin, Perfluorodecalin]
- intestinal damage / entry of digestive enzymes into the wall of the intestine [1]: minimize intestinal damage

Compound: NC[C@H]1CC[C@H](C(=O)O)CC1 [tranexamic acid]
- minimum effective dose, as concentration in the enteral solution (digestive enzymes; 17 ml to a 350 gm rat): 127 mM
- equivalent of the minimum effective rat dose in 2 liters (human dose) (digestive enzymes; extrapolated from rat to a human dose in 2 liters): 3.2 grams
- minimum effective dose (digestive enzymes; rats, enteral, given in 17-18 ml of fluid to a 350 gm rat): 100 mg/kg

Compound: [Ethyl p-(6-guanidinohexanoyloxy) benzoate] methanesulfonate [gabexate mesilate]
- effectiveness of a single dose/day given via NG tube in human ([2]; 2 to 4 grams in 1 to 2 liter solution with GOLYTELY (PEG) or saline, over multiple days (up to 14)): very effective
- blood pressure ([2]; continuous feeding into the stomach via nasogastric tube, 3000 mg/day in 2000 ml normal saline, within two days, minimal dose of dopamine): stabilized
- amylase, lipase and white blood cell (WBC) count ([2]; enteral via nasogastric tube, 3000 mg/day, then 300 mg/day from the third day for 10 days, FIG. 1A): reduced to control values
- glucose level [2, 3]: could be controlled by reduced dose of subcutaneous insulin
- patient's level of conscience [2, 3]: increased
- x-ray of the abdomen (ileus) ([2]; enteral via nasogastric tube, day 16 vs day 1, FIG. 1C): improved ileus
- survival ([2]; five months after discharge): alive
- plasma amylase and lipase values ([2]; intravenous, 3000 mg/day, over the next 12 hours, enteral feeding stopped, total parenteral nutrition): did not reduce
- extubation ([2]; three days after enteral treatment): extubated
